In PMC7104388 (Journal of medicinal chemistry, 2019):

Experiments:
PAMPA permeability = type: in vitro ADME; conditions: pH 7.4
Pf20S β5 [1] = target: T1, Pf20S β5 (Plasmodium falciparum, UniProt A0A5K1K7U1+Q8IJT1)
T1 sequence (Q8IJT1 61-271): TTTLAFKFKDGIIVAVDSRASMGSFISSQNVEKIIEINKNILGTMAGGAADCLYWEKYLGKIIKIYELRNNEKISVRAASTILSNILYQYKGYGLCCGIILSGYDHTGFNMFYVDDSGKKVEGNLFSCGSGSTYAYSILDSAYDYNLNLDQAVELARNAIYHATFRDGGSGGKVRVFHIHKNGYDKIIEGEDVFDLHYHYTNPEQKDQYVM
T1 sequence (A0A5K1K7U1 29-240): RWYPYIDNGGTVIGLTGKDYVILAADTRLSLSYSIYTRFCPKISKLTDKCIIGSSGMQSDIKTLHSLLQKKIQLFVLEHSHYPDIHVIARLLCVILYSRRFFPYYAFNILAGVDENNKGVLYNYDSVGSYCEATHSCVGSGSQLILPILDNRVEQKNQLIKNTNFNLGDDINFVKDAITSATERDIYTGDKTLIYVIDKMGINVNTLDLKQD

[2] = system: wild-type Pf Dd2 parasites; experiment: Dual drug assay and isobologram analysis, 72 h; type: cell-based, P. falciparum; conditions: WHZ-04 in combination with WLW-VS
Pf 3D7 = experiment: Parasite growth inhibition, erythrocytic stage, SYBR Green 72 h
[3] = system: P. falciparum clinical isolates (Uganda); experiment: Ex vivo 72-h growth inhibition of P. falciparum field isolates in Uganda; type: cell-based; conditions: Plasmodium falciparum, read-out: EC50 range against Ugandan isolates
Pf20S β5 [4] = target: T1, Pf20S β5; experiment: Pf20S active subunit labeling by MV151; type: binding, P. falciparum; conditions: Figure 2B
c-20S β5c = c-20S β5c (Homo sapiens, UniProt P20618+P28074); experiment: human c-20S β5c enzyme inhibition; type: biochemical
Pf20S β5 [5] = target: T1, Pf20S β5; experiment: biochemical; conditions: IC50 Pf20S β5, Table 3; mean of at least three independent experiments
i-20S β5i = i-20S β5i (Homo sapiens, UniProt P20618+P28062); experiment: human i-20S β5i enzyme inhibition; type: biochemical
P. falciparum Dd2 = experiment: Parasite growth inhibition, parental Dd2; conditions: Plasmodium falciparum

Compound: COc1cccc(C(=O)NCCNC(=O)[C@H](CC(=O)NC(C)(C)C)NS(=O)(=O)c2ccc(C)cc2)c1 [WHZ-12]
- PAMPA @ pH7.4 (PAMPA permeability): 159 nm/sec
- fold enhanced potency relative to WHZ-11 (Pf20S β5 [1]): 2.5 fold

Compound: Cc1ccc(S(=O)(=O)N[C@@H](CC(=O)NC(C)(C)C)C(=O)NCCNC(=O)c2ccc(F)cc2)cc1 [WHZ-07]
- fold reduction in potency relative to WHZ-04 (Pf20S β5 [1]): 6 fold

Compound: Cc1ccc(S(=O)(=O)N[C@@H](CC(=O)NC(C)(C)C)C(=O)NCCNC(=O)c2ccccc2Cl)cc1 [WHZ-08]
- fold reduction in potency relative to WHZ-04 (Pf20S β5 [1]): 10 fold

Compound: Cc1ccc(S(=O)(=O)N[C@@H](CC(=O)NC(C)(C)C)C(=O)NCCNC(=O)c2ccccc2)cc1 [WHZ-04]
- PAMPA @ pH7.4 (PAMPA permeability): 137 nm/sec
- type of interaction by isobologram analysis [2]: synergistic to additive
- ∑FIC ([2]; 72-h dual drug assay, three independent experiments): 0.52 ± 0.13

Compound: Cc1ccc(S(=O)(=O)N[C@@H](CC(=O)NC(C)(C)C)C(=O)NCCNC(=O)c2ccccc2F)cc1 [WHZ-05]
- PAMPA @ pH7.4 (PAMPA permeability): 105 nm/sec
- fold decrease in activity against cultured parasites compared to PKS21221 (Pf 3D7): 4.7 fold

Compound: CCN(CC)CCCC(C)Nc1ccnc2cc(Cl)ccc12 (centres unmarked) [chloroquine, reference compound]
- EC50 [3]: 4.5 to 27 nM

Compound: C#Cc1cccc(C(=O)NCCNC(=O)[C@H](CC(=O)NC(C)(C)C)NS(=O)(=O)c2ccc(C)cc2)c1 [WHZ-13]
- EC50 [3]: 4.4 to 16 nM
- PAMPA @ pH7.4 (PAMPA permeability): 203 nm/sec
- fold enhanced potency relative to WHZ-11 (Pf20S β5 [1]): 4.8 fold
- inhibition of labeling of Pf20S β5 by MV151 (Pf20S β5 [4]): only inhibited the labeling of the Pf20S β5

Compound: Cc1ccc(S(=O)(=O)N[C@@H](CC(=O)NC(C)(C)C)C(=O)NCCNC(=O)c2c(O)cccc2F)cc1 [WHZ-20]
- IC50 (c-20S β5c): > 100000 nM
- fold of selectivity, β5c over Pf20S β5 (c-20S β5c; in parenthesis in Table 3): > 24.7 fold
- IC50 (Pf20S β5 [5]): 4060 nM
- IC50 (i-20S β5i): 9970 nM
- fold of selectivity, β5i over Pf20S β5 (i-20S β5i; in parenthesis in Table 3): 2.5 fold

Compound: Cc1cc(C(=O)N[C@@H](CC(=O)NC(C)(C)C)C(=O)NCCNC(=O)c2cccc(-n3cccn3)c2)no1 [TDI4258]
- EC90 (P. falciparum Dd2): 60 nM
